For orientation: IC50 means the concentration that gives 50% inhibition.

Results on seven molecules are retold here after PMC12470121, “Exploring the Novel Pancreatic Lipase-Inhibitory Peptides in Chlorella pyrenoidosa: Preparation, Purification, Identification, and Molecular Docking” (Foods, 2025).

The target in test [1] is T1, pancreatic lipase (PL) (Sus scrofa, UniProt P00591).
T1 construct: Pancreatic lipase (derived from porcine pancreas); purchased Yuanye Biotech (Shanghai, China); host or cells: porcine pancreas
T1 sequence (P00591 1-450): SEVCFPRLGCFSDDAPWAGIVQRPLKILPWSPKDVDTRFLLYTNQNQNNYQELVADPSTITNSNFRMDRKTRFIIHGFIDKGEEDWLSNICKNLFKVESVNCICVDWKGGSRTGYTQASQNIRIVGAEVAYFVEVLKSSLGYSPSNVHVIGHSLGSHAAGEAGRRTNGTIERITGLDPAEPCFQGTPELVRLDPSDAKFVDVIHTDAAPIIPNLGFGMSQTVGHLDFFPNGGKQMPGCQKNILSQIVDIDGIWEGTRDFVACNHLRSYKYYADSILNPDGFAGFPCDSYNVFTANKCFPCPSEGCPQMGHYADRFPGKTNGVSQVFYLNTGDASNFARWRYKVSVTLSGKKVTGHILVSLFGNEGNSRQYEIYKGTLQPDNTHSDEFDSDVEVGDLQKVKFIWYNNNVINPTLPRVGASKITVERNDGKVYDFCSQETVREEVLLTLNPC
The test is described as follows: PL inhibition assay (pNPP substrate). Particulars: CPPH-I at 8 mg/mL vs orlistat at 8 µg/mL; p > 0.05. It counts as biochemical, porcine. Here is the method: To evaluate the inhibitory activity of the peptide fractions against PL, we conducted experiments according to Zhang et al.. Briefly, a mixture containing 120 μL of PL (10 mg/mL), 40 μL of peptide sample, and 80 μL of 50 mmol/L Tris-HCl buffer (pH 8.0) was incubated at 37 °C for 10 min. Then, 160 μL of 0.8 mmol/L p-nitrophenyl palmitate (pNPP) dissolved in dimethyl sulfoxide was added to initiate the reaction. After incubation at 37 °C for 20 min, the reaction was terminated by heating in a water bath at 100 °C for 5 min, followed by centrifugation to remove precipitated material. The absorbance of 200 μL of the supernatant was measured at 405 nm using a microplate reader (Infinite® 200 PRO, Tecan, Männedorf, Switzerland). For the control group, the peptide sample was replaced with an equal volume of buffer; in the blank group, the PL solution was replaced with buffer. Finally, the activity of PL was calculated using Equation (1). (1) PL activity%=[1−B−b/(A−a)]×100% where A denotes the absorbance of the control group, B the absorbance of the sample group, a the absorbance of the control blank group, and b the absorbance of the sample blank group.

In test [2] the target is pancreatic lipase (PL). The conditions noted are these: cited from earlier work. From the text: Their mechanisms of action are closely linked to a high hydrophobic amino acid content. […] Among them, the pancreatic lipase activity of VWTP was better. […] (36.28% pan ...
Test [3] has as its system intracellular triglyceride accumulation. The conditions noted are these: ref [15]; cited from earlier work. The text has this: Their mechanisms of action are closely linked to a high hydrophobic amino acid content.
Test [4] deals with T2, Pancreatic lipase (derived from porcine pancreas) (porcine) (UniProt P00591).
T2 sequence: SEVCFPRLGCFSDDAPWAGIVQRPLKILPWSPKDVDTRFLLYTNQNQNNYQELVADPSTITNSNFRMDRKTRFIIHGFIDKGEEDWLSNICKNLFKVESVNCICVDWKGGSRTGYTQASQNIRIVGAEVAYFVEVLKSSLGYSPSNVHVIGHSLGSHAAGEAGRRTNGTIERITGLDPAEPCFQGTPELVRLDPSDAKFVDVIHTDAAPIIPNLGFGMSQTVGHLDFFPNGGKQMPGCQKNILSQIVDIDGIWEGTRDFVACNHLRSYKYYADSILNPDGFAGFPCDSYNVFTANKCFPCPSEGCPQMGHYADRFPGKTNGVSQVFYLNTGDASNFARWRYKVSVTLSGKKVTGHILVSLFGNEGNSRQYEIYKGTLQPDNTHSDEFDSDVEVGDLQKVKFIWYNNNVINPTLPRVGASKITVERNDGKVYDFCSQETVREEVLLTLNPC

In the case of `CCCCCCCCCCC[C@@H](C[C@@H]1OC(=O)[C@H]1CCCCCC)OC(=O)[C@H](CC(C)C)NC=O` [orlistat], in test [1], the “PL-I activity compared with orlistat” value is “no significant difference between CPPH-I and orlistat”. Regarding “FYLGYCDY [peptide derived from rice bran fat extract (literature)]”, the IC50 in test [2] (peptide from rice bran, ref [13], read-out: Pancreatic lipase inhibition IC50) is 470 ± 20 nM. Take “LLVVYPWTQR [peptide isolated from Chlorella (literature)]”: the “Pancreatic lipase inhibition (in words)” value in test [2] (isolated from Chlorella, ref [15]) is reported as “demonstrated efficacy in inhibiting pancreatic lipase”. Further, in test [3], the “Reduction of intracellular triglyceride accumulation (in words)” value is reported as “reducing intracellular triglyceride accumulation”.

In the case of “SPFWNINAH [oat bran-derived peptide (literature)]”, the “Pancreatic lipase-inhibitory activity (in words)” value in test [2] (oat bran-derived, ref [14]) is “activity indicates its promise as an anti-obesity drug”.

For the molecule IPYPL, in test [4], the PL inhibition rate at 2 mg/mL peptide (pNPP hydrolysis, absorbance at 405 nm) amounted to 4.49%. In test [4], IVGPF registered a PL inhibition rate at 2 mg/mL peptide (pNPP hydrolysis, absorbance at 405 nm) of 7.64%.

In turn, FLSQPF registered a PL inhibition rate at 2 mg/mL peptide (pNPP hydrolysis, absorbance at 405 nm) in test [4] of 11.5%.
